Measured values published in patent US20230233580A1, “USE OF OXYGENATED CHOLESTEROL SULFATES FOR CANCERS AND NON-CANCEROUS TRANSFORMATIONS RELATED TO EPSTEIN-BARR VIRUS” (priority 2020, published 2023).

Legend:
[1] = Metabolite profiling of plasma and feces, oral dose; format: in vivo, rats; conditions: oral 75 mg/kg
Excerpt: Radiolabeled components in plasma and feces extracts were profiled and identified using radio-high performance liquid chromatography (HPLC) and high performance liquid chromatography/mass spectrometry (HPLC/MS) methods.

[2] = tested on: 3 DNMTs and 9 other epigenetic enzymes; assay: Enzyme kinetic study of epigenetic enzymes; format: biochemical; conditions: for effect on enzymatic activities: controls
[3] = Excretion mass balance, intravenous dose; format: in vivo, male Sprague Dawley rats; conditions: over 168 hours, intravenous 10 mg/kg, rats
Excerpt: (§1) The objectives of this study were to determine the plasma pharmacokinetics of [4-^14C]-25HC3S-derived radioactivity in male Sprague Dawley rats, determine the routes of elimination and excretion mass balance of [4-^14C]-25HC3S-derived radioactivity in male Sprague Dawley rats, determine the tissue distribution and tissue pharmacokinetics of [4-^14C]-25HC3S-derived radioactivity using quantitative whole body autoradiography methods in male Sprague Dawley and Long Evans rats following a single intravenous (bolus) dose, and to provide plasma, urine, and fecal homogenate samples for metabolite profiling of [4-^14C]-25HC3S-derived radioactivity.
(§2) Nine male Sprague Dawley rats (Group 1) were designated for the pharmacokinetic phase, 3 male Sprague Dawley rats (Group 2) for the excretion mass balance phase, and 7 male Sprague Dawley rats (Group 3) and 9 male Long Evans rats (Group 4) for the tissue distribution phase. All animals received a single intravenous dose of [^14C]-25HC3S at 10 mg/kg and a target radioactivity of 225 pCi/kg. […] Following blood collection, animals were euthanized by CO2 inhalation and carcasses frozen in a dry ice/hexane bath for processing by quantitative whole body autoradiography. Whole blood, plasma, urine, feces, cage rinse, and cage wash were analyzed for total radioactivity by liquid scintillation counting.

[4] = Tissue distribution by quantitative whole body autoradiography, intravenous dose, pigmented rats; format: in vivo, male Long Evans rats; conditions: intravenous 10 mg/kg
Excerpt: as §1, §2

[5] = Excretion mass balance, oral dose; format: in vivo; conditions: oral (gavage) 75 mg/kg, rats
[6] = Plasma pharmacokinetics of radioactivity, oral dose; format: in vivo; conditions: single oral (gavage) dose 75 mg/kg, rats
[7] = Tissue distribution by quantitative whole body autoradiography, oral dose; format: in vivo, male Sprague Dawley rats
[8] = Plasma pharmacokinetics of radioactivity, intravenous dose; format: in vivo, male Sprague Dawley rats; conditions: single intravenous (bolus) dose 10 mg/kg, rats
Excerpt: as §1
as §2, with “[…]. Blood samples were collected from all Group 1 animals at approximately 0.083, 0.25, 0.5, 1, 2, 4, 8, 12, 24, 48, and 72 hours post-dose. Urine and feces were collected from all Group 2 animals periodically through 168 hours post-dose.” for “pCi/kg.”

[9] = Tissue distribution by quantitative whole body autoradiography, intravenous dose; format: in vivo, male Sprague Dawley rats; conditions: intravenous 10 mg/kg
Protocol: as §2, with “[…] Blood samples were collected from all Group 1” for “All”, “animals” for “animals received a single intravenous dose of [^14C]-25HC3S”, “approximately 0.083, 0.25, 0.5, 1, 2, 4, 8, 12, 24, 48,” for “10 mg/kg”, “72 hours post-dose. Urine and feces were collected from all Group 2 animals periodically through 168 hours post-dose.” for “a target radioactivity of 225 pCi/kg.”

[10] = calculated using AUClast, oral 75 mg/kg

With `C[C@H](CCCC(C)(C)O)[C@H]1CC[C@H]2[C@@H]3CC=C4C[C@@H](O)CC[C@]4(C)[C@H]3CC[C@]12C` [25HC, 25-Hydroxycholesterol, reference compound] the “amount in feces, % of total dose” value ([1]; 0 to 168 hours post-dose pools) was 1.9 % of total dose and the “relative observed intensity (ROI) in plasma” value ([1]; 2 hour post-dose plasma) was 37%.
For `C[C@@H](CO)CCC[C@@H](C)[C@H]1CC[C@H]2[C@@H]3CC=C4C[C@@H](O)CC[C@]4(C)[C@H]3CC[C@]12C` [27HC, 27-Hydroxycholesterol], the “effect on other enzymes (than DNMT-1)” value [2] was “no effect”.
With `CC(C)CCC[C@@H](C)[C@H]1CC[C@H]2[C@@H]3CC=C4C[C@@H](OS(=O)(=O)O)CC[C@]4(C)[C@H]3CC[C@]12C` [Xol3S, 5-cholesten-3β-ol, 3-sulfate] the “effect on enzymatic activities” value [2] was “did not significantly affect”.
In the case of `CC(C)CCC[C@@H](C)[C@H]1CC[C@H]2[C@@H]3CC=C4C[C@@H](O)CC[C@]4(C)[C@H]3CC[C@]12C` [Xol, Cholesterol], the “effect on enzymatic activities” value [2] is reported as “did not significantly affect”.
For `C[C@H](CCCC(C)(C)O)[C@H]1CC[C@H]2[C@@H]3CC=C4[14CH2][C@@H](OS(=O)(=O)O)CC[C@]4(C)[C@H]3CC[C@]12C` [[4-^14C]-25HC3S], the “dose recovered in urine, feces, and cage rinse” value [3] was “approximately 100.2%”, the “recovered radioactivity in feces” value [3] was 83.0% and the “plasma or whole blood concentrations versus Sprague Dawley rats” value ([4]; first 168 hours post-dose) was “no substantial difference”. For the same compound, the “binding to pigmented or non-pigmented skin or the uveal tract” value [4] was “no difference”, the “dose recovered in urine, feces, and cage rinse” value [5] was “approximately 94.5%” and the “recovered radioactivity in feces” value [5] was 94.2%. For the same compound, the “plasma AUClast” value [6] was 96,400 h-ng equiv./g, the “terminal elimination phase T1/2” value [6] was 27.3 h and the “tissue:plasma ratio, adrenal gland” value [7, 10] was 6.64. For the same compound, the “tissue:plasma ratio, liver” value [7, 10] was 6.96, the “tissue:plasma ratio, small intestine (wall)” value [7, 10] was 15.4 and the “Skin, thymus, prostate, and pituitary tissue concentrations” value ([7]; oral 75 mg/kg) was less than 3000 ng equiv./g. For the same compound, the “tissue Tmax” value ([7]; oral 75 mg/kg) was no more than 6 hours post-dose, the “tissue distribution of compound and/or metabolites” value ([7]; oral 75 mg/kg, detected in all tissues except the eye (lens)) was “broadly distributed” and the “plasma:whole blood AUClast ratio” value ([7]; oral (gavage) 75 mg/kg) was 1.12. The “whole blood AUClast” value ([7]; oral (gavage) 75 mg/kg) was 127,000 h-ng equiv./g, the “terminal elimination phase T1/2, plasma” value ([8]; PK phase) was 26.6 h and the “mean plasma C0” value ([8]; total radioactivity) was 25,900 ng-equiv./g. The “plasma AUClast” value ([8]; total radioactivity) was 27,900 h*ng-equiv./g, the “tissue:plasma ratio, liver” value ([9]; calculated using AUClast) was 11.4 and the “tissue:plasma ratio, small intestine (wall)” value ([9]; calculated using AUClast) was 7.44. For the same compound, the “plasma:whole blood AUClast ratio” value ([9]; Group 3) was 0.79, the “whole blood AUClast” value ([9]; Group 3) was 25,200 h*ng-equiv./g and the maximum plasma concentration ([9]; QWBA phase) was 12,400 ng-equiv./g. For the same compound, the “AUClast in the liver” value ([9]; derived radioactivity) was ≤ 364,000 h-ng/g and the “tissue distribution of compound and/or metabolites” value ([9]; detected in all tissues except the eye (lens)) was “broadly distributed”.
For desmosterol sulfate, the “detection in plasma or feces samples” value ([1]; radiolabeled) was “not found”.
